Assay results: patent US5912330A, “Crystalline maltosyl glucoside, and its production and use” (Kabushiki Kaisha Hayashibara Seibutsu Kagaku Kenkyujo, priority 1994, dated 1999)
Values after ≈ are worked out from the molar mass of the structure shown.

Legend:
[1] = Solubility in water; type: physicochemical; conditions: 25° C. water
Method: (8) Solubility (as anhydride)
Up to about 163 g each hydrous and anhydrous crystals were respectively soluble in 100 ml of 25° C. water.

[2] = Hygroscopicity: water content and appearance at 90.1% relative humidity; type: physicochemical; conditions: for Hygroscopicity and appearance: in words
Method: About 1 g powder of hydrous crystalline maltosyl glucoside, anhydrous crystalline maltosyl glucoside or amorphous crystalline maltosyl glucoside was placed in a polyethylene vessel and allowed to stand in high humidity conditions of 90.1% relative humidity, and the changes of moisture content and appearance of these powders were observed and measured at a prescribed interval. Hydrous and anhydrous crystals, which were prepared by the methods of Experiment B-1, and amorphous crystal, which was prepared by dissolving hydrous crystal substance in deionized water and dried in vacuo to obtain a test sample.

[3] = tested on: mice; test: Acute toxicity in mice upon oral administration; type: in vivo; conditions: for mortality: maximum administrable dose
Method: (§1) Hydrous and anhydrous crystalline maltosyl glucosides prepared by the method in Experiment B-1 were tested for acute toxicity in mice upon oral administration.

[4] = Reducing power (DE) by Somogyi-Nelson method; type: physicochemical; conditions: dextrose equivalent
Source text: For purifying these newly formed saccharides, the reaction products were decolored, deionized, concentrated and subjected to column fractionation using a strongly-acidic cation exchanger in alkali-metal form ("XT-1016", Na^+ form, 4% cross-linking degree, a product of Tokyo Organic Chemical Industries, Ltd., Tokyo, Japan). More particularly, the cation exchanger was packed in 3 jacketed stainless steel columns, inner diameter of 2.0 cm, length of 1 m each, cascaded in series, which were then loaded with either reaction product in an amount of 5 v/v % to the volume of the cation exchanger and then applied with 55° C. water at an SV (space velocity) 0.13 for fractionation, and fractions containing 97% or more newly formed saccharides were collected. The obtained fractions were separately lyophilized into high-purity saccharide preparations. The yields against particular material substrates were about 9% for PI, about 65% for PII, about 82% for PIII, about 80% for PIV and about 77% for PV, and the final purities were 97.5% for PI, 98.6% for PII, 99.5% for PIII, 98.4% for PIV and 98.4% for PV.
These high-purity saccharide preparations were tested for their reducing powers with the Somogyi-Nelson method and their reducing powers were represented in terms of DE (dextrose equivalent).

[5] = Moisture adsorption / hygroscopicity of the products of the Examples; type: physicochemical
[6] = Acute toxicity in mice upon oral administration; type: in vivo; conditions: mouse, in vivo
Method: as §1

Compound | Water content ([2]; 0 hour) | Water content ([2]; 2 hours) | Water content ([2]; 8 hours) | Water content ([2]; 24 hours) | Hygroscopicity and appearance [2] | DE [4] | further results
OC[C@H]1O[C@H](O[C@H]2O[C@H](CO)[C@@H](O[C@H]3O[C@H](CO)[C@@H](O)[C@H](O)[C@H]3O)[C@H](O)[C@H]2O)[C@H](O)[C@@H](O)[C@@H]1O [Anhydrous crystal, O-α-D-glucopyranosyl-(→4)-α-D-glucopyranosyl α-D-glucopyranoside] | 0.3% | 10.3% | 10.4% | 10.5% | hygroscopic, however, had no change of appearance and retained free-flowing ability |  | Solubility (as anhydride) [1]: about 163 g/100 ml; LD50 [3]: ≥ 50000 mg/kg; mortality [3]: no mouse died
OC[C@H]1O[C@H](O[C@H]2O[C@H](CO)[C@@H](O[C@H]3O[C@H](CO)[C@@H](O[C@H]4O[C@H](CO)[C@@H](O[C@H]5O[C@H](CO)[C@@H](O)[C@H](O)[C@H]5O)[C@H](O)[C@H]4O)[C@H](O)[C@H]3O)[C@H](O)[C@H]2O)[C@H](O)[C@@H](O)[C@@H]1O [PIII, α-maltotetraosyl glucoside] |  |  |  |  |  | 0.10 | 
OC[C@H]1O[C@H](O[C@H]2O[C@H](CO)[C@@H](O[C@H]3O[C@H](CO)[C@@H](O)[C@H](O)[C@H]3O)[C@H](O)[C@H]2O)[C@H](O)[C@@H](O)[C@@H]1O [Amorphous crystal, O-α-D-glucopyranosyl-(→4)-α-D-glucopyranosyl α-D-glucopyranoside] | 0.5% | 6.3% | 17.4% | 20.0% | very hygroscopic, readily solidified, and free flowing |  | 
OC[C@H]1O[C@H](O[C@H]2O[C@H](CO)[C@@H](O[C@H]3O[C@H](CO)[C@@H](O)[C@H](O)[C@H]3O)[C@H](O)[C@H]2O)[C@H](O)[C@@H](O)[C@@H]1O [Example A-5] |  |  |  |  |  |  | water content after standing in a room ([5]; anhydrous crystal converted into hydrous crystal): about 10%
OC[C@H]1O[C@H](O[C@H]2O[C@H](CO)[C@@H](O[C@H]3O[C@H](CO)[C@@H](O[C@H]4O[C@H](CO)[C@@H](O)[C@H](O)[C@H]4O)[C@H](O)[C@H]3O)[C@H](O)[C@H]2O)[C@H](O)[C@@H](O)[C@@H]1O [PII, α-maltotriosyl glucoside] |  |  |  |  |  | 0.35 | 
OC[C@H]1O[C@H](O[C@H]2O[C@H](CO)[C@@H](O[C@H]3O[C@H](CO)[C@@H](O)[C@H](O)[C@H]3O)[C@H](O)[C@H]2O)[C@H](O)[C@@H](O)[C@@H]1O [Example A-1] |  |  |  |  |  |  | hygroscopicity ([5]; in words, product of the Example): substantially no hygroscopicity
OC[C@H]1O[C@H](O[C@H]2O[C@H](CO)[C@@H](O[C@H]3O[C@H](CO)[C@@H](O[C@H]4O[C@H](CO)[C@@H](O[C@H]5O[C@H](CO)[C@@H](O[C@H]6O[C@H](CO)[C@@H](O)[C@H](O)[C@H]6O)[C@H](O)[C@H]5O)[C@H](O)[C@H]4O)[C@H](O)[C@H]3O)[C@H](O)[C@H]2O)[C@H](O)[C@@H](O)[C@@H]1O [PIV, α-maltopentaosyl glucoside] |  |  |  |  |  | 0.27 | 
OC[C@H]1O[C@H](O[C@H]2O[C@H](CO)[C@@H](O[C@H]3O[C@H](CO)[C@@H](O)[C@H](O)[C@H]3O)[C@H](O)[C@H]2O)[C@H](O)[C@@H](O)[C@@H]1O [Hydrous crystal, O-α-D-glucopyranosyl-(→4)-α-D-glucopyranosyl α-D-glucopyranoside] | 9.9% | 10.4% | 10.5% | 10.5% | less hygroscopic, free flowing, and readily handleable |  | solubility ([1]; read-out: Solubility (as anhydride)): ~1630 mg/mL (≈ 3230 mM); LD50 [6]: ≥ 50000 mg/kg; mortality [3]: no mouse died
OC[C@H]1O[C@H](O[C@H]2O[C@H](CO)[C@@H](O[C@H]3O[C@H](CO)[C@@H](O)[C@H](O)[C@H]3O)[C@H](O)[C@H]2O)[C@H](O)[C@@H](O)[C@@H]1O [PI, α-maltosyl glucoside] |  |  |  |  |  | 0.83 | 
OC[C@H]1O[C@H](O[C@H]2O[C@H](CO)[C@@H](O[C@H]3O[C@H](CO)[C@@H](O[C@H]4O[C@H](CO)[C@@H](O[C@H]5O[C@H](CO)[C@@H](O[C@H]6O[C@H](CO)[C@@H](O[C@H]7O[C@H](CO)[C@@H](O)[C@H](O)[C@H]7O)[C@H](O)[C@H]6O)[C@H](O)[C@H]5O)[C@H](O)[C@H]4O)[C@H](O)[C@H]3O)[C@H](O)[C@H]2O)[C@H](O)[C@@H](O)[C@@H]1O [PV, α-maltohexaosyl glucoside] |  |  |  |  |  | 0.23 | 
